Measurements taken from patent US5496854A, “Metallocenes as anti-tumor drugs” (Technion Research & Development Foundation Ltd., priority 1992, dated 1996).
Read-outs that look alike come from different tables or passages of the source.

Tests used:
[1] = test system: Ovcar-3 Ovarian Carcinoma; experiment: Cytotoxicity (growth inhibition), Ovcar-3
Source text: (§1) The value of the ratio Ti/Pt represents the relative activity of TPE as compared with that of cis-platinum.
(§2) The excipient can serve as an agent for promoting absorption of the medicament by the body or as formulation auxiliary, sweetener, flavouring agent, colourant or preservative. […] The novel titanocene derivatives, according to the present invention, can be prepared from common chemical reagents using standard equipment. It should be realized, that the Examples for their preparations presented hereinafter are only for illustration and many other routes may be conceived for their syntheses.

H-322 Lung Carcinoma = experiment: Cytotoxicity (growth inhibition), H-322
Source text: as §1, §2

Molt-4 T-cell Leukemia = experiment: Cytotoxicity (growth inhibition), Molt-4; settings: for cytotoxicity (log.): molt-4 cells
Source text: as §1, §2

MCF-7 Breast Cancer = experiment: Cytotoxicity (growth inhibition), MCF-7
Source text: as §1, §2

[2] = test system: Capan 1 Pancreas Carcinoma; experiment: Cytotoxicity (growth inhibition), Capan 1
Source text: as §1, §2

HT-29 Colon Carcinoma = experiment: Cytotoxicity (growth inhibition), HT-29
Source text: as §1, §2

SK-Mel-28 Melanoma = experiment: Cytotoxicity (growth inhibition), SK-Mel-28
Source text: as §1, §2

[3] = test system: NHEK Normal Keratino Epithelial; experiment: Cytotoxicity (growth inhibition), NHEK
Source text: as §1, §2

[4] = test system: CHO Chinese Hamstead Ovary; experiment: Cytotoxicity (growth inhibition), CHO
Source text: as §1, §2

P-388 Mouse Leukemia = experiment: Cytotoxicity (growth inhibition), P-388
Source text: as §1, §2

[5] = test system: HMEC Normal Human Mammary; experiment: Cytotoxicity (growth inhibition), HMEC
Source text: as §1, §2

UCLA-P3 Lung Carcinoma = experiment: Cytotoxicity (growth inhibition), UCLA-P3
Source text: as §1, §2

NHDF Normal Human Skin = experiment: Cytotoxicity (growth inhibition), NHDF
Source text: as §1, §2

HL-60 B-cell Leukemia = experiment: Cytotoxicity (growth inhibition), HL-60
Source text: as §1, §2

tumor = settings: prior art; cited from earlier work

C[N+](C)(C)CCOC(=O)c1ccc([O-])cc1.C[N+](C)(C)CCOC(=O)c1ccc([O-])cc1.[Ti+4].c1cc[cH-]c1.c1cc[cH-]c1 [TCE, Bis[4-(2-trimethylammono)ethoxycarbonylphenolato]bis(n^5-cyclopentadienyl)titanium(IV)]
cytotoxicity (log.) ([1]; ovcar-3 cells): -4.00 log. (M) | cytotoxicity (log.) (H-322 Lung Carcinoma; h-322 cells): -4.00 log. (M) | cytotoxicity (log.) (Molt-4 T-cell Leukemia): -4.00 log. (M) | cytotoxicity (log.) (MCF-7 Breast Cancer; mcf-7 cells): -4.30 log. (M) | cytotoxicity (log.) ([2]; capan 1 cells): -4.00 log. (M) | cytotoxicity (log.) (HT-29 Colon Carcinoma; ht-29 cells): -4.00 log. (M)

CCOC(=O)c1ccc([O-])cc1.CCOC(=O)c1ccc([O-])cc1.[Ti+4].c1cc[cH-]c1.c1cc[cH-]c1 [TEE-1, Bis(4-ethoxycarbonylphenolato)bis(n^5-cyclopentadienyl)titanium(IV)]
cytotoxicity (log.) (SK-Mel-28 Melanoma; sk-mel-28 cells): -5.51 log. (M) | cytotoxicity (log.) ([1]; ovcar-3 cells): -5.20 log. (M) | cytotoxicity (log.) (H-322 Lung Carcinoma; h-322 cells): -5.80 log. (M) | cytotoxicity (log.) (Molt-4 T-cell Leukemia): -7.00 log. (M) | cytotoxicity (log.) ([3]; human, nhek cells): -5.80 log. (M) | cytotoxicity (log.) ([4]; cho cells): -4.60 log. (M) | cytotoxicity (log.) (P-388 Mouse Leukemia; p-388 cells): -4.89 log. (M) | cytotoxicity (log.) (MCF-7 Breast Cancer; mcf-7 cells): -5.80 log. (M) | cytotoxicity (log.) ([2]; capan 1 cells): -5.51 log. (M) | cytotoxicity (log.) ([5]; human, hmec cells): -6.11 log. (M) | cytotoxicity (log.) (HT-29 Colon Carcinoma; ht-29 cells): -5.20 log. (M) | cytotoxicity (log.) (UCLA-P3 Lung Carcinoma; ucla-p3 cells): -5.20 log. (M) | cytotoxicity (log.) (NHDF Normal Human Skin; human, nhdf cells): -4.89 log. (M) | cytotoxicity (log.) (HL-60 B-cell Leukemia; hl-60 cells): -5.51 log. (M)

COCCOCCOC(=O)c1ccc([O-])cc1.COCCOCCOC(=O)c1ccc([O-])cc1.[Ti+4].c1cc[cH-]c1.c1cc[cH-]c1 [TEG, Bis[4-(2-(2-methoxyethoxy)ethoxy]carbonylphenolato]bis(n^5-cyclopentadienyl)titanium(IV)]
cytotoxicity (log.) ([1]; ovcar-3 cells): -4.00 log. (M) | cytotoxicity (log.) (Molt-4 T-cell Leukemia): -4.00 log. (M)

COCCOC(=O)c1ccc([O-])cc1.COCCOC(=O)c1ccc([O-])cc1.[Ti+4].c1cc[cH-]c1.c1cc[cH-]c1 [TMEM, Bis[4-(2-methoxy)ethoxycarbonylphenolato]bis(n^5-cyclopentadienyl)titanium(IV)]
cytotoxicity (log.) (SK-Mel-28 Melanoma; sk-mel-28 cells): -4.60 log. (M) | cytotoxicity (log.) ([1]; ovcar-3 cells): -4.60 log. (M) | cytotoxicity (log.) (H-322 Lung Carcinoma; h-322 cells): -4.89 log. (M) | cytotoxicity (log.) (Molt-4 T-cell Leukemia): -7.00 log. (M) | cytotoxicity (log.) ([4]; cho cells): -4.30 log. (M) | cytotoxicity (log.) (MCF-7 Breast Cancer; mcf-7 cells): -4.89 log. (M) | cytotoxicity (log.) ([2]; capan 1 cells): -4.89 log. (M) | cytotoxicity (log.) ([5]; human, hmec cells): -4.60 log. (M) | cytotoxicity (log.) (HT-29 Colon Carcinoma; ht-29 cells): -4.60 log. (M) | cytotoxicity (log.) (NHDF Normal Human Skin; human, nhdf cells): -4.30 log. (M) | cytotoxicity (log.) (HL-60 B-cell Leukemia; hl-60 cells): -4.60 log. (M)

COC(=O)c1ccc([O-])cc1.COC(=O)c1ccc([O-])cc1.[Ti+4].c1cc[cH-]c1.c1cc[cH-]c1 [TPE, Bis(4-methoxycarbonylphenolato)bis(n^5-cyclopentadienyl)titanium(IV)]
ratio Ti/Pt (SK-Mel-28 Melanoma; SK-Mel-28, relative activity of TPE as compared with cis-platinum): 10 | IC50 (SK-Mel-28 Melanoma; sk-mel-28 cells): 1.6 µM | cytotoxicity (log.) (SK-Mel-28 Melanoma; sk-mel-28 cells): -5.41 log. (M) | ratio Ti/Pt ([1]; Ovcar-3, relative activity of TPE as compared with cis-platinum): 10 | IC50 ([1]; ovcar-3 cells): 6.3 µM | cytotoxicity (log.) ([1]; ovcar-3 cells): -5.20 log. (M) | ratio Ti/Pt (H-322 Lung Carcinoma; H-322, relative activity of TPE as compared with cis-platinum): 100 | IC50 (H-322 Lung Carcinoma; h-322 cells): 0.63 µM | cytotoxicity (log.) (H-322 Lung Carcinoma; h-322 cells): -6.20 log. (M) | ratio Ti/Pt (Molt-4 T-cell Leukemia; Molt-4, relative activity of TPE as compared with cis-platinum): 10 | cytotoxicity (log.) (Molt-4 T-cell Leukemia): -6.00 log. (M) | ratio Ti/Pt ([3]; NHEK, relative activity of TPE as compared with cis-platinum): 200 | CC50 ([3]; human, nhek cells): 3.1 µM | cytotoxicity (log.) ([3]; human, nhek cells): -5.51 log. (M) | ratio Ti/Pt ([4]; CHO, relative activity of TPE as compared with cis-platinum): 2 | IC50 ([4]; cho cells): 13 µM | cytotoxicity (log.) ([4]; cho cells): -4.80 log. (M) | IC50 (P-388 Mouse Leukemia; p-388 cells): 3.9 µM | cytotoxicity (log.) (P-388 Mouse Leukemia; p-388 cells): -5.41 log. (M) | ratio Ti/Pt (MCF-7 Breast Cancer; MCF-7, relative activity of TPE as compared with cis-platinum): 100 | IC50 (MCF-7 Breast Cancer; mcf-7 cells): 2 µM | cytotoxicity (log.) (MCF-7 Breast Cancer; mcf-7 cells): -5.70 log. (M) | ratio Ti/Pt ([2]; Capan 1, relative activity of TPE as compared with cis-platinum): 10 | IC50 ([2]; capan 1 cells): 0.39 µM | cytotoxicity (log.) ([2]; capan 1 cells): -6.41 log. (M) | ratio Ti/Pt ([5]; HMEC, relative activity of TPE as compared with cis-platinum): 20 | CC50 ([5]; human, hmec cells): 3.1 µM | cytotoxicity (log.) ([5]; human, hmec cells): -5.70 log. (M) | ratio Ti/Pt (HT-29 Colon Carcinoma; HT-29, relative activity of TPE as compared with cis-platinum): 200 | IC50 (HT-29 Colon Carcinoma; ht-29 cells): 3.9 µM | cytotoxicity (log.) (HT-29 Colon Carcinoma; ht-29 cells): -5.41 log. (M) | ratio Ti/Pt (UCLA-P3 Lung Carcinoma; UCLA-P3, relative activity of TPE as compared with cis-platinum): 20 | IC50 (UCLA-P3 Lung Carcinoma; ucla-p3 cells): 3.1 µM | cytotoxicity (log.) (UCLA-P3 Lung Carcinoma; ucla-p3 cells): -5.51 log. (M) | ratio Ti/Pt (NHDF Normal Human Skin; NHDF, relative activity of TPE as compared with cis-platinum): 20 | CC50 (NHDF Normal Human Skin; human, nhdf cells): 1.6 µM | cytotoxicity (log.) (NHDF Normal Human Skin; human, nhdf cells): -5.41 log. (M) | ratio Ti/Pt (HL-60 B-cell Leukemia; HL-60, relative activity of TPE as compared with cis-platinum): 2 | IC50 (HL-60 B-cell Leukemia; hl-60 cells): 3.1 µM | cytotoxicity (log.) (HL-60 B-cell Leukemia; hl-60 cells): -5.70 log. (M)

titanocene dichloride [TDC, reference compound]
IC50 (SK-Mel-28 Melanoma; read-out: IC50 (cytotoxic data), SK-Mel-28): 1000 µM | IC50 ([1]; read-out: IC50 (cytotoxic data), Ovcar-3): 1000 µM | IC50 (H-322 Lung Carcinoma; read-out: IC50 (cytotoxic data), H-322): 1000 µM | IC50 (Molt-4 T-cell Leukemia; read-out: IC50 (cytotoxic data), Molt-4): 1000 µM | CC50 ([3]; read-out: IC50 (cytotoxic data), NHEK): 1000 µM | IC50 ([4]; read-out: IC50 (cytotoxic data), CHO): 1000 µM | IC50 (P-388 Mouse Leukemia; read-out: IC50 (cytotoxic data), P-388): 500 µM | anti-tumor activity (tumor): very reactive anti-tumor reagent | IC50 (MCF-7 Breast Cancer; read-out: IC50 (cytotoxic data), MCF-7): 1000 µM | IC50 ([2]; read-out: IC50 (cytotoxic data), Capan 1): 500 µM | CC50 ([5]; read-out: IC50 (cytotoxic data), HMEC): 130 µM | IC50 (HT-29 Colon Carcinoma; read-out: IC50 (cytotoxic data), HT-29): 500 µM | IC50 (UCLA-P3 Lung Carcinoma; read-out: IC50 (cytotoxic data), UCLA-P3): 1000 µM | CC50 (NHDF Normal Human Skin; read-out: IC50 (cytotoxic data), NHDF): 1000 µM | IC50 (HL-60 B-cell Leukemia; read-out: IC50 (cytotoxic data), HL-60): 1000 µM
